The values below come from patent publication US11034960B2, “PKLR inhibition in the treatment of NAFLD and HCC” (ScandiEdge Therapeutics AB, priority 2017, dated 2021).

Data set [1] concerns HepG2 cells. Description: RT-PCR gene expression in HepG2 cells after interference by C75 or PKLR-specific siRNA for 24 hours. Format: cell-based, human. As to conditions: C75 (0, 40, 60 μM), FIG. 2C. The protocol: (§1) RNA was isolated for RT-PCR after interference for 24 hours; GAPDH was set as the internal reference. Cell counting was performed after interference for 72 hours. Data are presented as the means±standard errors of five independent experiments. Comparisons were performed by one-way ANOVA. Samples without any interference were assigned as controls. * represents a significant difference compared with the value in the control group (P<0.05).
For subsequent experiments, K562 and HepG2, human immortalized myelogenous leukemia and hepatic cell lines, respectively, were selected. Both cell lines were cultured in RPMI-1640 medium (R2405, Sigma-Aldrich) supplemented with 10% fetal bovine serum (FBS, F2442, Sigma Aldrich) and incubated in 5% CO2 humidity at 37° C.
To confirm the speculated CN, chemical inhibitors and RNA interference (RNAi) assays were chosen to interfere with the immortalized cell lines (including K562 and HepG2) and the subsequent candidate gene expression and cell growth patterns were observed. More specifically, the experimental protocol was as follows: (1) C75 (C5490, Sigma-Aldrich), as a well-known fatty acid synthase [FAS] inhibitor, was added to cells at 80% confluence with a final concentration of 20, 40, 60, or 80 μM (taking cells without C75 interference as the control); (2) cells at 80% confluence were separately transfected with […] of Silencer® pre-designed PKLR-targeted siRNAs (clone ID: 53 (SEQ ID NO:2 and SEQ ID NO:3), 54 (SEQ ID NO:2 and SEQ ID NO:5), Life Technologies) at 15 nM by using Lipofectamine® RNAiMAX (13778075, Life Technologies). Cells incubated in medium with non-target negative control siRNA at 15 nM (4390843, Life Technologies) were assigned as the control.
Total RNA was isolated with TRIzol reagent (15596026, Thermo Fisher Scientific) after treatment with C75 or siRNA for 24 hours. The expression profiles of key genes (FASN, PKLR in K562/HepG2, and PNPLA3, PCSK9 only in HepG2 cells) in the co-expression network were measured and analyzed via quantitative real-time PCR with iTaq Universal SYBR Green One-Step Kit (1725151, Bio-Rad), using anchored oligo (dT) primer based on CFX96™ detection system (Bio-Rad). GAPDH was set as the internal control for normalization. The primer sequences were SEQ ID NO:9 (FASN forward), SEQ ID NO:10 (FASN reverse), SEQ ID NO:11 (PKLR forward), SEQ ID NO:12 (PKLR reverse), SEQ ID NO:13 (PNPLA3 forward), SEQ ID NO:14 (PNPLA3 reverse), SEQ ID NO:15 (PCSK9 forward), SEQ ID NO:16 (PCSK9 reverse), SEQ ID NO:17 (GAPDH forward) and SEQ ID NO:18 (GAPDH reverse). Variation in cell proliferation was detected with a Cell Counting Kit-8 (CCK-8, CK04, Dojindo) after interference by C75/siRNA for 72 hours. […]

Data set [2] concerns K562 cells. Description: RT-PCR gene expression in K562 cells after interference by C75 or PKLR-specific siRNA for 24 hours. It counts as cell-based, human. The settings on record: C75 at different concentrations (0, 40, 60 μM), FIG. 2A. The protocol:
as §1
(§2) For subsequent experiments, K562 and HepG2, human immortalized myelogenous leukemia and hepatic cell lines, respectively, were selected. Both cell lines were cultured in RPMI-1640 medium (R2405, Sigma-Aldrich) supplemented with 10% fetal bovine serum (FBS, F2442, Sigma Aldrich) and incubated in 5% CO2 humidity at 37° C. […]
(§3) Total RNA was isolated with TRIzol reagent (15596026, Thermo Fisher Scientific) after treatment with C75 or siRNA for 24 hours. The expression profiles of key genes (FASN, PKLR in K562/HepG2, and PNPLA3, PCSK9 only in HepG2 cells) in the co-expression network were measured and analyzed via quantitative real-time PCR with iTaq Universal SYBR Green One-Step Kit (1725151, Bio-Rad), using anchored oligo (dT) primer based on CFX96™ detection system (Bio-Rad). […] Variation in cell proliferation was detected with a Cell Counting Kit-8 (CCK-8, CK04, Dojindo) after interference by C75/siRNA for 72 hours. […]

In data set [3] the test system is primary human hepatocytes. The data set can be described thus: mRNA expression in primary human hepatocytes treated with C75 (TaqMan real-time PCR). Format: cell-based. The settings on record: 40 μg/ml C75, 4, 6, 8 or 24 hours, FIG. 3F. The protocol:
Human primary hepatocytes were purchased from Biopredic International. Twenty-four hours after arrival (48 hours after isolation), human hepatocytes were treated with 40 μg/ml of C75 or dimethyl sulfoxide (DMSO) for 4, 6, 8 or 24 hours.
Total RNA was isolated from human hepatocytes and snap-frozen mouse liver with an RNeasy Mini Kit (Qiagen). cDNA was synthesized with a high-capacity cDNA Reverse Transcription Kit (Applied Biosystems) and random primers. The mRNA expression levels of genes of interest were analyzed via TaqMan real-time PCR in a ViiATM7 System (Applied Biosystems). The TaqMan Gene Expression assays used were Mm01263610_m1 (for mouse Pcsk9), Mm00662319_m1 (mouse Fasn), Mm00443090_m1 (mouse Pklr), Mm00504420_m1 (mouse Pnpla3), Mm01282499_m1 (mouse Hmgcr), Hs00545399_m1 (human PCSK9), Hs01005622_m1 (human FASN), Hs00176075_m1 (human PKLR), Hs00228747_m1 (human PNPLA3), and Hs00168352_m1 (human HMGCR) (all from Applied Biosystems). Hprt (mouse Mm03024075_m1) and GADPH (human Hs02758991_g1) (Applied Biosystems) were used as internal controls.

The subject of data set [4] is HepG2 cells. Description: Cell growth of HepG2 cells (Cell Counting Kit-8) after interference for 72 hours. It counts as cell-based, human. The settings on record: different concentrations of C75 (0, 20, 40, 60, 80 μM), FIG. 2D. The protocol: as §1, §2, §3
In general terms: Tetrazolium dyes change colour on reduction, which living cells bring about.

The subject of data set [5] is K562 cells. Description: Cell growth of K562 cells (Cell Counting Kit-8) after interference for 72 hours. Format: cell-based, human. As to conditions: C75 (0, 20, 40, 60, 80 μM), FIG. 2B. The protocol: as §1, §2, §3
The test system of another data set is PKLR. The data set can be described thus: qPCR of target gene expression in HepG2 cells after siRNA or expression plasmid transfection. Format: cell-based, human. As to conditions: siRNA 50 nM, 72 hours, P<0.05. The protocol: HepG2 cell line was purchased from ATCC and selected for subsequent genetic modification. Cells were routinely cultured in humidified incubator with 5% CO2 at 37°. Cells were maintained by RPMI 1640 medium (R2405, Sigma-Aldrich) with 10% fetal bovine serum (FBS, F7524, Sigma-Aldrich).
For downregulation of target genes, PKLR, PNPLA3, and PCSK9, RNAi experiment was performed by silencer predesigned siRNA kit (Assay ID: 53 for PKLR, 121938 for PNPLA3 and 103966 for PCSK9, Thermo Fisher Scientific, USA). According to the manufacturer's instructions, HepG2 cells were treated by specific siRNA at 50 nM of final concentration using reverse transfection on the help of Lipofectamine RNAiMAX for 72 hours. Negative Control for transfection (4390843, Thermo Fisher Scientific, USA) was selected as standard for comparison from the same company. […]
Cells were treated for experiment when they were grown to 80% confluence. […] Expressions of target genes were validated by quantitative real-time PCR (Schmittgen and Livak, 2008). […] And the relative expression of each gene was calculated by 2-ΔΔCT method described before (Schmittgen and Livak, 2008). β-actin was selected as internal reference gene for normalization.
All results of measurement were presented/shown by mean±SD and One-way ANOVA was applied for comparisons in quantitative covariates. […]
Background: In qPCR the cycle at which signal appears reflects the starting amount.

Data set [6] concerns HepG2 cells. The data set can be described thus: Lipidomics measurement of triglycerides in HepG2 cells with PKLR downregulation. It counts as cell-based, human. The protocol:
To better clarify the genetic impact of PKLR on lipid deposition, cells were treated by siRNA and then tested by mass spectrometer for lipidomics data, sequentially. To be specific, HepG2 cells were transfected by siRNA (Assay ID: 53 with target on PKLR, applied by aforementioned method) for 72 hours and then harvested for lipidomics measurement. Correspondingly, cells treated with non-targeting siRNA (4390843, Thermo Fisher Scientific, USA) were assigned as control.
For lipidomics measurement, cells were extracted using butanol/methanol (BUME) as previously described (Lofgren et al., 2012). Internal standards (either deuterated or containing heptadecanoyl (C17:0) fatty acids) were added during the extraction. Analysis of triacylglycerols and phosphatidylcholines were made using direct infusion on a QTRAP 5500 mass spectrometer (Sciex, Concord, Canada) equipped with a robotic nanoflow ion source, the TriVersa NanoMate (Advion BioSciences, Ithaca, N.J.). Detection of triacylglycerols was made using neutral loss scanning in positive mode (Murphy et al., 2007). Phosphatidylcholines were analyzed in positive mode using m/z 184 (phosphocholine) as fragment ion (Brugger et al., 1997).

Take `C=C1C(=O)OC(CCCCCCCC)C1C(=O)O` (stereo not shown) [C75]: in the data set on HepG2 cells [1], the FASN expression level entry is on record as “significantly decreased”, the PCSK9 expression level result is recorded as “significantly decreased”, the PKLR expression level entry is recorded as “significantly decreased” and the PNPLA3 expression level result is “significantly decreased”. Moreover, in the data set with K562 cells [2], the FASN expression level result is given as “significantly decreased” and the PKLR expression level entry is recorded as “significantly decreased”. The “expression of FASN in relation to expression of PKLR, PCSK9, PNPLA3” value in data set [3] is on record as “interconnected”. For the same compound, in the data set with HepG2 cells [4], the cell growth result is given as “significantly decreased”. The cell growth entry in the data set on K562 cells [5] was “significant decrease”.
Regarding “siRNA 53: PKLR-targeted Silencer pre-designed siRNA; sense sequence SEQ ID NO:5, antisense sequence SEQ ID NO:6 (sense GGAGAUGAUCAAGGCCGGGTT; antisense CCCGGCCUUGAUCAUCUCCTT; chemistry not given here; listed as Homo sapiens)”, in the data set with PKLR, the “inhibitory rate of PKLR expression (down-regulation vs negative control)” value was 96%. Moreover, in the data set on HepG2 cells [6] (after adjusting based on the phosphatidylcholines levels), the “decrease of total triglyceride compared to negative control” value was “about 15%”. In the data set with HepG2 cells [6] (siRNA 72 hours vs non-targeting negative control, P<0.05), the triglyceride level result was “significant decrease”. Further, the “total triglyceride adjusted based on the phosphatidylcholines levels” value in the data set with HepG2 cells [6] (siRNA 72 hours, negative control 555.0±51.2) came out at 471.7±45.5.
